The target of one experiment is human Akt1 (Homo sapiens (Human), UniProt P31749). Description: Inhibitory effects on Akt1 kinase activity (TR-FRET, biotinylated Crosstide). It counts as biochemical. As to conditions: Akt1, ATP 150 μM, pre-incubation 120 minutes at 25° C.; read-out: AKT inhibitory activity IC50. The procedure: Akt1 was prepared and assays of inhibitory activity of the compound according to the present invention against Akt1 kinase activity in vitro were conducted according to the method described in Biochem. J., vol. 385, pp. 399-408, 2005 and Cancer Res., vol. 68, pp. 2366-2374, 2008. In the preparation of Akt1 protein, human Akt1 tagged with the middle T antigen was expressed in an insect cell Sf9, Akt1 was prepared through affinity purification and activation by PDK1, and the resultant was stored at −80° C. until the inhibition assays of the compounds. In the inhibition assay of the compounds, Akt1 and the compound according to the present invention were subjected to pre-incubation at 25° C. for 120 minutes in a reaction buffer (15 mM Tris-HCl, pH 7.5, 0.01% Tween-20, 2 mM DTT). Subsequently, biotinylated Crosstide (biotin-[…], Millipore), MgCl2, and ATP were added as substrates at the final concentration of 500 nM, 10 mM, and 150 μM, respectively, and the reaction was allowed to proceed at 25° C. for 60 minutes. EDTA was added to the final concentration of 40 mM to terminate the reaction, a detection liquid containing the Eu-anti-phospho-Crosstide antibody (PerkinElmer) and SureLight APC-SA (PerkinElmer) at the final concentration of 0.5 nM and 62.5 nM, respectively was added, and the reaction was allowed to proceed at room temperature for 2 hours. In the end, the fluorescence levels irradiated with an excitation light of 337 nm were assayed at two different wavelength levels (i.e., 620 nm and 665 nm) using PI-HERAstar FS (BMG LABTECH) or PHERAstar (BMG LABTECH). The level of the phosphorylation reaction was determined on the basis of the ratio of fluorescence levels at two wavelength levels, and the concentration of the compound at which phosphorylation could be inhibited by 50% was defined as the IC50 level (nM) and shown in Table 2.
As reference compounds, conventional Comparative Example A (WO 2010/056563 (Example 31)) and Comparative Example B having inhibitory activity against Akt were used.
(In TR-FRET formats the signal depends on donor and acceptor labels being close together.)

The target in a further experiment is Rsk1 (Homo sapiens (Human), UniProt Q15418). Kind of experiment: Inhibitory effects on Rsk1 kinase activity (QSS Assist FP assay kit). Type of experiment: biochemical. The conditions noted are these: Rsk1, ATP 30 μM; read-out: Rsk inhibitory activity IC50. How it is done: Inhibitory activity of the compound according to the present invention on Rsk1 kinase activity in vitro was assayed using the QSS Assist™ FP assay kit (Carna Biosciences, Inc.).
In the inhibition assay of inhibitory activity of the compound, the test compound was diluted by serial dilution with dimethyl sulfoxide (DMSO). Subsequently, an Rsk1 protein, a substrate peptide (final concentration: 100 nM), magnesium chloride (final concentration: 10 mM), ATP (final concentration: 30 μM), and the solution of the test compound in DMSO (DMSO final concentration: 5%) were added to the kinase reaction buffer (20 mM HEPES (pH 7.4), 2 mM dithiothreitol, 0.01% Tween-20), and the mixture was incubated at 25° C. for 40 minutes to perform the kinase reaction. The IMAP Progressive Binding Reagent diluted to 400-fold with the IMAP Progressive Binding Buffer A (Molecular Devices, LLC) was added to terminate the kinase reaction.

The target of the next experiment is S6K1 (Homo sapiens (Human), UniProt P23443). Kind of experiment: Inhibitory effects on S6K1 kinase activity (QSS Assist FP assay kit). As to conditions: S6K1, ATP 25 μM; read-out: S6K inhibitory activity IC50. It counts as biochemical. How it is done: Inhibitory activity of the compound according to the present invention on S6K1 kinase activity in vitro was assayed using the QSS Assist™ FP assay kit (Carna Biosciences, Inc.).
In the inhibition assay for inhibitory activity of the compound, the test compound was diluted by serial dilution with dimethyl sulfoxide (DMSO). Subsequently, an S6K protein, a substrate peptide (final concentration: 100 nM), magnesium chloride (final concentration: 5 mM), ATP (final concentration: 25 μM), and the solution of the test compound in DMSO (final DMSO concentration: 5%) were added to the kinase reaction buffer (20 mM HEPES (pH 7.4), 2 mM dithiothreitol, 0.01% Tween-20), and the mixture was incubated at 25° C. for 30 minutes to perform the kinase reaction. The IMAP Progressive Binding Reagent diluted to 400-fold with the IMAP Progressive Binding Buffer A (Molecular Devices, LLC) was added thereto to terminate the kinase reaction. The reaction product was allowed to stand at room temperature in the dark for 120 minutes and assayed with the use of PHERAstar (BMG LABTECH; excitation wavelength: 485 nm; detection wavelength: 520 nm). The level of phosphorylation reaction was determined based on the degree of fluorescence polarization, and the concentration of the compound at which phosphorylation could be inhibited by 50% was defined as the IC50 level (nM) and shown in Table 4.

In experiment [1] the test system is RKO cells (human colon cancer cell lines). Kind of experiment: Cell growth inhibition study using RKO cells (CellTiter-Glo). Type of experiment: cell-based. As to conditions: 72 h, 3 days. The procedure:
The in vitro cell growth inhibition study using RKO cells (human colon cancer cell lines) was conducted as described below.
RKO cells (ATCC, Cat#: CRL-2577) cultured in a MEM medium (GIBCO, Cat#:10370-088) supplemented with 10% FBS, 1 mM L-glutamine (GIBCO, Cat#:25030), and 1 mM sodium pyruvate (GIBCO, Cat#:11360) were seeded in a 96-well flat bottom microplate (COSTAR, Cat#:3904) at 2×10^3 cells (150 μl) and cultured in an incubator containing 5% CO2 at 37° C. for 1 day. The compound according to the present invention subjected to serial dilution with dimethyl sulfoxide or dimethyl sulfoxide alone was added to a MEM medium containing 10% FBS, 1 mM L-glutamine, and 1 mM sodium pyruvate. The resultant medium containing the compound or dimethyl sulfoxide alone was added to the RKO cells in the culture plate by 50 μl/well at the final concentration of the compound to 10, 3, 1, 0.3, 0.1, 0.03, 0.01, 0.003, and 0 μM, respectively. Another RKO cell culture plate separately prepared was allowed to stand at room temperature for 30 minutes, then 100 μl of the medium was removed, and added 50 μl of CellTiter-Glo® 2.0 Assay (Promega, Cat#:G9242) to each well. After the plates were placed in the dark for 10 minutes, the luminescence level derived from viable cells in each well was measured by the Multimode Plate Reader (PerkinElmer, EnSpire). The cells treated with the compound or dimethyl sulfoxide alone were cultured at 37° C. in an incubator containing 5% CO2 for an additional 3 days. After incubation, the culture plate was placed at room temperature for 30 minutes, and 150 μl of the supernatant was removed from each well to adjust the amount of the remaining cell culture solution to 50 μl each. To 50 μl of the remaining cell culture solution, the equivalent amount of CellTiter-Glo® 2.0 Assay was added. After the cell culture plate was placed in the dark for 10 minutes, the luminescence level derived from viable cells in each well was assayed with the use of the Multimode Plate Reader. The cell growth rate was calculated by the formulae shown below and the concentration at which the cell growth rate became 50%; i.e., the concentration of the compound according to the present invention at which cell growth would be inhibited by 50% was determined (GI50 (nM)). Cell growth rate (%)=(T−C0)/(C−C0)×100, provided that T is equal to or greater than C0(T≥C0) Cell growth rate (%)=(T−C0)/C0×100, provided that T is less than C0(T<C0) C0: Luminescence level in each well when the compound is added (count per second) C: Luminescence level in each well when dimethyl sulfoxide is added alone (count per second) T: Luminescence level in each well when the test compound is added (count per second)
As control compounds, conventional Comparative Example A (WO 2010/056563 (Example 31)) and Comparative Example B having inhibitory activity against Akt were used.
The GI50 levels of representative compounds according to the present invention and reference compounds in RKO cells were evaluated, and the results are shown in Table 5.

Sequence of S6K1 (P23443 whole entry): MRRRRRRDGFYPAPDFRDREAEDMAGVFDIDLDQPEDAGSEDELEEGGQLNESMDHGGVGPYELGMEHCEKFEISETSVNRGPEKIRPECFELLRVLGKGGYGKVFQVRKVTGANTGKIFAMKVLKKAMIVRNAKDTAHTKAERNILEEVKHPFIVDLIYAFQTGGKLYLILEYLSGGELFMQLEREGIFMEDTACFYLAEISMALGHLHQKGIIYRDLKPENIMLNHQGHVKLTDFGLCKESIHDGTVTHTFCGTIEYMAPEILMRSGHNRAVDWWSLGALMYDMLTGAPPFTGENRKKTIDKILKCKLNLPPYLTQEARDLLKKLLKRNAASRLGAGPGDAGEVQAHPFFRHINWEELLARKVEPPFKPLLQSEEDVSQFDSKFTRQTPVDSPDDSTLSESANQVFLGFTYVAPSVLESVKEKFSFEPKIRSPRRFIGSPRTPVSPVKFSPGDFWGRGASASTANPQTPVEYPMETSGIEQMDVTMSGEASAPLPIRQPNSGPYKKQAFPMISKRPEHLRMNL
Sequence of human Akt1 (P31749 whole entry): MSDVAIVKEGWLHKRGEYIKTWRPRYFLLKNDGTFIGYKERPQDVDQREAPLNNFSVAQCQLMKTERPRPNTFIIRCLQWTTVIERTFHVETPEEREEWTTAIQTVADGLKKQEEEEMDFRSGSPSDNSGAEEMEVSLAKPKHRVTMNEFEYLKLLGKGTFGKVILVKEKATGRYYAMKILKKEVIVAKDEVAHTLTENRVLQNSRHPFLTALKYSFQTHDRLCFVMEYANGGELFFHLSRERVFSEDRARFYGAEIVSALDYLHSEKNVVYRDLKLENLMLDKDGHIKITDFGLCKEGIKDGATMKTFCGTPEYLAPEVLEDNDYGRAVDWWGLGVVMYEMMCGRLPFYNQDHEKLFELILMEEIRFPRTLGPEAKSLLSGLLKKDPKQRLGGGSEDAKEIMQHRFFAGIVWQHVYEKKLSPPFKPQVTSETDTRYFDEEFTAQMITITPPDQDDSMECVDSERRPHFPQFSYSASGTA
Sequence of Rsk1 (Q15418 whole entry): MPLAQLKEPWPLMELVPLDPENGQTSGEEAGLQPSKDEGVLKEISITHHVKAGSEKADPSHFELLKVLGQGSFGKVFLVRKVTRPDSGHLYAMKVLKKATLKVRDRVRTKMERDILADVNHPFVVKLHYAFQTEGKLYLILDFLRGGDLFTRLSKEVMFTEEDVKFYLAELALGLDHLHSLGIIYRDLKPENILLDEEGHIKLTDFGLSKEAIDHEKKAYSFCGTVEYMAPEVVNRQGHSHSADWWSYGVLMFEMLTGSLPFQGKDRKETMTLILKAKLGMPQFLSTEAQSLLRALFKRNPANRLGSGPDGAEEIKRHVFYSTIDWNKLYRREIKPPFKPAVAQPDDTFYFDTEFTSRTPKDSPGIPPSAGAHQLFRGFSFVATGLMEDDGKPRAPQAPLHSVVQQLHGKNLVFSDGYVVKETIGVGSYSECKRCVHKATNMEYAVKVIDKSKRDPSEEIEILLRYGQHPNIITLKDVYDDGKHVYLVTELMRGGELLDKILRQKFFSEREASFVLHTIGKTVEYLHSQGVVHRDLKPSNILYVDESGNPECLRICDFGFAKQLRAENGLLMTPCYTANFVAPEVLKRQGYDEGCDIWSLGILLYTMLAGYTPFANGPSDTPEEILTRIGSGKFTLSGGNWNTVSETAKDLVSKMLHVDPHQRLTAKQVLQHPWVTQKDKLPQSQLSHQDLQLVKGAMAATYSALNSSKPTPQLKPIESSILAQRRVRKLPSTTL

As a reminder, the IC50 is the concentration that gives 50% inhibition. As a reminder, the GI50 is the concentration that inhibits growth by half. Regarding `CC(C)(C)NCCNc1ccc(-c2cncc(F)c2)nc1C1CCN(c2ncnc3c2C(C)(C)C(=O)N3)CC1` [Compound 1, 4-(4-(5-((2-(Tert-butylamino)ethyl)amino)-5′-fluoro-[2,3′-bipyridin]-6-yl)piperidin-1-yl)-5,5-dimethyl-5H-pyrrolo[2,3-d]pyrimidin-6(7H)-one], the IC50 was determined as 6.8 nM at human Akt1, 1.5 nM on Rsk1 and 0.4 nM on S6K1. The molecule further showed a GI50 in experiment [1] of 136 nM.

On to `CC1C(=O)Nc2ncnc(N3CCC(c4nc(-c5ccnc(F)c5)ccc4NCCN4CCCC4)CC3)c21` (centres unmarked) [Compound 13, 4-(4-(2′-Fluoro-5-((2-(pyrrolidin-1-yl)ethyl)amino)-[2,4′-bipyridin]-6-yl)piperidin-1-yl)-5-methyl-5H-pyrrolo[2,3-d]pyrimidin-6(7H)-one], for which the IC50 at human Akt1 turned out to be 1.4 nM; at Rsk1 it was 1.4 nM; at S6K1, 0.4 nM. This molecule also gave a GI50 in experiment [1] of 111 nM.

As for `CC1C(=O)Nc2ncnc(N3CCC(c4nc(-c5ccoc5)ccc4NCCN4CCCC4)CC3)c21` (centres unmarked) [Compound 14, 4-(4-(6-(Furan-3-yl)-3-((2-(pyrrolidin-1-yl)ethyl)amino)pyridin-2-yl)piperidin-1-yl)-5-methyl-5H-pyrrolo[2,3-d]pyrimidin-6(7H)-one], the values for the IC50 on human Akt1, at Rsk1 and at S6K1 were 0.5 nM, 1.7 nM and 0.9 nM, respectively. This molecule returned a GI50 in experiment [1] of 118 nM.

As to `COc1cncc(-c2ccc(NCCNC(C)C)c(C3CCN(c4ncnc5c4C(C)C(=O)N5)CC3)n2)c1` (centres unmarked) [Compound 15, 4-(4-(5-((2-(Isopropylamino)ethyl)amino)-5′-methoxy-[2,3′-bipyridin]-6-yl)piperidin-1-yl)-5-methyl-5H-pyrrolo[2,3-d]pyrimidin-6(7H)-one], the IC50 came to 2.1 nM at human Akt1, 1.1 nM at Rsk1 and 0.7 nM at S6K1. Further, the GI50 in experiment [1] is 122 nM.

As to `CC1C(=O)Nc2ncnc(N3CCC(c4nc(-c5nccs5)ccc4NCCN4CCCC4)CC3)c21` (centres unmarked) [Compound 24, 5-Methyl-4-(4-(3-((2-(pyrrolidin-1-yl)ethyl)amino)-6-(thiazol-2-yl)pyridin-2-yl)piperidin-1-yl)-5H-pyrrolo[2,3-d]pyrimidin-6(7H)-one], the IC50 on human Akt1 stood at 1.9 nM; at S6K1 it was 0.6 nM. In experiment [1], this molecule yielded a GI50 of 130 nM.

Turning to `CC1C(=O)Nc2ncnc(N3CC=C(c4nc(-c5cncc(F)c5)ccc4NCCN4CCCC4)CC3)c21` (centres unmarked) [Compound 26, 4-(5-Fluoro-5′-((2-(pyrrolidin-1-yl)ethyl)amino)-5″,6″-dihydro-[3,2′:6′,4″-terpyridine-]-1″(2″H)-yl)-5-methyl-5H-pyrrolo[2,3-d]pyrimidin-6(7H)-one], at S6K1, the IC50 came to 0.6 nM. Further, the GI50 in experiment [1] is 124 nM.

Regarding `CC1C(=O)Nc2ncnc(N3CCC(c4cc(-c5cc(C(F)(F)F)nn5C)cnc4NCCN4CCCC4)CC3)c21` (centres unmarked) [Compound 27, 5-Methyl-4-(4-(5-(1-methyl-3-(trifluoromethyl)-1H-pyrazol-5-yl)-2-((2-(pyrrolidin-1-yl)ethyl)amino)pyridin-3-yl)piperidin-1-yl)-5H-pyrrolo[2,3-d]pyrimidin-6(7H)-one], the IC50 at human Akt1 worked out at 1.6 nM; at Rsk1, 1.8 nM. In experiment [1], this molecule displayed a concentration for 50% growth inhibition (GI50) of 48 nM.

On to `CC1(C)C(=O)Nc2ncnc(N3CCC(c4nc(-c5nnc(C(F)F)o5)ccc4NCCN4CCCC4)CC3)c21` [Compound 30, 4-(4-(6-(5-(Difluoromethyl)-1,3,4-oxadiazol-2-yl)-3-((2-(pyrrolidin-1-yl)ethyl)amino)pyridin-2-yl)piperidin-1-yl)-5,5-dimethyl-5H-pyrrolo[2,3-d]pyrimidin-6(7H)-one], for which the IC50 at human Akt1 was 14.5 nM; on Rsk1, 1.7 nM; at S6K1, 0.5 nM. The GI50 in experiment [1] was determined as 82 nM.

Molecule `CC(C)(C)NCCNc1ccc(-c2nnc(C(F)(F)F)o2)nc1C1CCN(c2ncnc3c2C(C)(C)C(=O)N3)CC1` [Compound 32, 4-(4-(3-((2-(Tert-butylamino)ethyl)amino)-6-(5-(trifluoromethyl)-1,3,4-oxadiazol-2-yl)pyridin-2-yl)piperidin-1-yl)-5,5-dimethyl-5H-pyrrolo[2,3-d]pyrimidin-6(7H)-one] returned a GI50 in experiment [1] of 89 nM. This counts as double-digit nanomolar.

On to `CC(C)(C)NCCNc1ccc(-c2nc(C(F)(F)F)no2)nc1C1CCN(c2ncnc3c2C(C)(C)C(=O)N3)CC1` [Compound 43, 4-(4-(3-((2-(Tert-butylamino)ethyl)amino)-6-(3-(trifluoromethyl)-1,2,4-oxadiazol-5-yl)pyridin-2-yl)piperidin-1-yl)-5,5-dimethyl-5H-pyrrolo[2,3-d]pyrimidin-6(7H)-one], for which the IC50 stood at 1 nM at human Akt1, 0.4 nM on Rsk1 and 0.4 nM on S6K1.

The values are drawn from US10538528B2, “5H-pyrrolo[2,3-D]pyrimidin-6(7H)-one derivative” (Taiho Pharmaceutical Co., Ltd., priority 2016, dated 2020).
